In article PMC11786100, “Chronic GIPR agonism results in pancreatic islet GIPR functional desensitisation” (Molecular Metabolism, 2025):

Assays:
Assay in all cases: HTRF cAMP assay in transiently transfected AD-293 cells
Format in all cases: cell-based
Conditions in all cases: 30 min stimulation, n = 3–5
mouse GIPR = system: mouse GIPR
Experimental: (§1) AD-293 cells were transfected with desired plasmid DNA 24 h prior to cAMP quantification using the cAMP-Gs Dynamic 2 kit (Cisbio, France), as per manufacturer's protocol. Full details are provided in the supplementary methods.
(§2) AD-293 cells were added to a 12-well plate and maintained in 2 ml complete DMEM. 1 μg of specified plasmid DNA was added to each well alongside Lipofectamine 2000 (Thermo Fisher, UK). cAMP production was quantified 24 hours following transfection using homogenous time resolved fluorescence (HTRF), specifically the cAMP-Gs Dynamic 2 kit (Cisbio, France). Peptides and cells were diluted in DMEM + 1% P/S + 0.1% BSA. For peptide stability testing, cells, fresh peptide and peptide incubated with dispersed islet cells were diluted in RPMI-1640 (Thermo Fisher, UK) + 10% FBS + 1% P/S. 10 μl of peptide and 10 μl of cell suspension were added in duplicate to an opaque 96-well plate (Grenier Bio-One, Austria) and incubated at 37°C for 30 minutes. 10 μl of cAMP-d2 and anti-cAMP cryptate, both diluted in lysis buffer, were added in quick succession as per the manufacturer’s protocol. The plates were then incubated at room temperature for 45 minutes and read using the SpectraMax i3x (Molecular Devices, US).

mouse GLP-1R = target: T1, mouse GLP-1R (Mus musculus, UniProt O35659)
T1 construct: Plasmids encoding full length, wild-type human or mouse GLP-1R, GIPR or glucagon receptor (GCGR) in the pcDNA5/FRT vector; host or cells: AD-293
T1 sequence (O35659 22-463): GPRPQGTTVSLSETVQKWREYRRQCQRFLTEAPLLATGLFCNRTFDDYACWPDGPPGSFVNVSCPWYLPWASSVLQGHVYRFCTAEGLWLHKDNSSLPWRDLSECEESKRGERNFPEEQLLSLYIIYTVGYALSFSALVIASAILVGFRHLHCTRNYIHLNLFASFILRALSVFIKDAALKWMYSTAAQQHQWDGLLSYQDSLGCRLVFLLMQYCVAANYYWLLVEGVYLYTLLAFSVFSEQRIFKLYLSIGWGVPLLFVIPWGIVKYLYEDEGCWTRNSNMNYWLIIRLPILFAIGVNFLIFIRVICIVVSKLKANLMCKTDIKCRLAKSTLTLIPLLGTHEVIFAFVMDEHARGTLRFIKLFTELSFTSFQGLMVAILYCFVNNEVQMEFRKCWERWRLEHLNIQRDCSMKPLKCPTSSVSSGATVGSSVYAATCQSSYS
Experimental: as §1, §2

human GIPR = target: T2, human GIPR (Homo sapiens, UniProt P48546)
T2 construct: Plasmids encoding full length, wild-type human or mouse GLP-1R, GIPR or glucagon receptor (GCGR) in the pcDNA5/FRT vector; host or cells: AD-293
T2 sequence (P48546 22-466): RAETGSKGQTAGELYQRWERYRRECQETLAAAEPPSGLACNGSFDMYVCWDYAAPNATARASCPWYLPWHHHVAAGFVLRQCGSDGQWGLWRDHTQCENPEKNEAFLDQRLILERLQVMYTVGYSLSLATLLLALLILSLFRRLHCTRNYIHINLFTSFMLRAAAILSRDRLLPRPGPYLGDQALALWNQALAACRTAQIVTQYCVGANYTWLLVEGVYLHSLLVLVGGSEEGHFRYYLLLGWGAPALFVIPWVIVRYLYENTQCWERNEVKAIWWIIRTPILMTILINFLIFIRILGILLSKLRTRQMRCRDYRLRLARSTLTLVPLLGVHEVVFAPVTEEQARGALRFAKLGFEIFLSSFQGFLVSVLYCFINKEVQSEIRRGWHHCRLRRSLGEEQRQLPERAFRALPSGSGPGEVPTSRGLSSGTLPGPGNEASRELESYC
Experimental: as §1, §2

mouse GCGR = target: T3, mouse GCGR (Mus musculus, UniProt Q61606)
T3 construct: Plasmids encoding full length, wild-type human or mouse GLP-1R, GIPR or glucagon receptor (GCGR) in the pcDNA5/FRT vector; host or cells: AD-293
Experimental: as §1, §2

human GCGR = target: T4, human GCGR (Homo sapiens, UniProt P47871)
T4 construct: Plasmids encoding full length, wild-type human or mouse GLP-1R, GIPR or glucagon receptor (GCGR) in the pcDNA5/FRT vector; host or cells: AD-293
Experimental: as §1, §2

T3 sequence (Q61606 27-485): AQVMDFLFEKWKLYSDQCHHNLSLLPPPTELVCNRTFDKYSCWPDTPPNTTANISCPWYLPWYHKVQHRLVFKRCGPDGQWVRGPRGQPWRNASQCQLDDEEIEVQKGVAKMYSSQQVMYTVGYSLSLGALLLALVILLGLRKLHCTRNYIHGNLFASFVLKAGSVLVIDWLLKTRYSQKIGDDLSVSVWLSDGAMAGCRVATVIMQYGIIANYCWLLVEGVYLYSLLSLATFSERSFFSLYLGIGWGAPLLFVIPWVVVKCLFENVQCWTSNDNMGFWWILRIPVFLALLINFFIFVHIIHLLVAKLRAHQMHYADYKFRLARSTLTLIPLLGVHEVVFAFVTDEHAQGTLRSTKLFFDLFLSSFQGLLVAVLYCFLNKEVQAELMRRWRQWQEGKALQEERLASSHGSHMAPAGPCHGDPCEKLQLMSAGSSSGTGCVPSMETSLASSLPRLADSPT
T4 sequence (P47871 26-477): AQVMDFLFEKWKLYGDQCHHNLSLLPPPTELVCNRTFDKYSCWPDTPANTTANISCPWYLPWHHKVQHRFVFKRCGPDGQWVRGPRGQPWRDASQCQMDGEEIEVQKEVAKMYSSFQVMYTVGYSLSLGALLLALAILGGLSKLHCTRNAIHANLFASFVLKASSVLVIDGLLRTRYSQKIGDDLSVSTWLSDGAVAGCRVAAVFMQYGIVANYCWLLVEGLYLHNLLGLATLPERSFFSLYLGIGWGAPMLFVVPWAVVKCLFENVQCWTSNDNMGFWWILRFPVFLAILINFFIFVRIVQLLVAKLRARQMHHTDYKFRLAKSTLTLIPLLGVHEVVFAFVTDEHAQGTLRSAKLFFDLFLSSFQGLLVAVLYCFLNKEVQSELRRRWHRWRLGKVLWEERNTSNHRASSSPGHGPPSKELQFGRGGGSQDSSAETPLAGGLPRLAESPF

## CC[C@H](C)[C@H](NC(=O)[C@H](CO)NC(=O)[C@H](Cc1ccc(O)cc1)NC(=O)[C@H](CC(=O)O)NC(=O)[C@H](CO)NC(=O)[C@@H](NC(=O)[C@H](Cc1ccccc1)NC(=O)[C@@H](NC(=O)CNC(=O)[C@H](CCC(=O)O)NC(=O)C(C)(C)NC(=O)[C@@H](N)Cc1ccc(O)cc1)[C@@H](C)O)[C@@H](C)CC)C(=O)N[C@@H](C)C(=O)N[C@@H](CC(C)C)C(=O)N[C@@H](CC(=O)O)C(=O)N[C@@H](CCCCN)C(=O)N[C@H](C(=O)N[C@@H](Cc1c[nH]cn1)C(=O)N[C@@H](CCC(N)=O)C(=O)N[C@@H](CCC(N)=O)C(=O)N[C@@H](CC(=O)O)C(=O)N[C@@H](Cc1ccccc1)C(=O)N[C@H](C(=O)N[C@@H](CC(N)=O)C(=O)N[C@@H](Cc1c[nH]c2ccccc12)C(=O)N[C@@H](CC(C)C)C(=O)N[C@@H](CC(C)C)C(=O)N[C@@H](C)C(=O)N[C@@H](CCC(N)=O)C(=O)N[C@@H](CCCCN)C(=O)NCC(=O)N[C@@H](CCCCNC(=O)CC[C@H](NC(=O)CCCCCCCCCCCCCCCCCCC(=O)O)C(=O)O)C(=O)N[C@@H](CCCCN)C(=O)N[C@@H](CC(N)=O)C(=O)N[C@@H](CC(=O)O)C(=O)N[C@@H](Cc1c[nH]c2ccccc12)C(=O)N[C@@H](CCCCN)C(=O)N[C@@H](Cc1c[nH]cn1)C(=O)N[C@@H](CC(N)=O)C(=O)N[C@H](C(=O)N[C@H](C(=O)N[C@@H](CCC(N)=O)C(=O)O)[C@@H](C)O)[C@@H](C)CC)C(C)C)[C@@H](C)CC [GIP108]
Mouse GIPR
  fold lower cAMP potency than hGIP at mouse GIPR: 19.6 fold
Mouse GLP-1R
  cAMP activation of mouse GLP-1R: minimal activation
Human GIPR
  cAMP potency at human GIPR compared with human GIP(1–42): potency similar to human GIP(1–42)
Mouse GCGR
  cAMP activation of mouse GCGR: minimal activation
Human GCGR
  cAMP activation of human GCGR: minimal activation
